In the METLIN SMRT retention time set (Domingo-Almenara et al. 2019):

Assay: gradient 5% acetonitrile 3 min, to 50% in 2 min, to 85% in 15 min, held 3 min, 100 µL/min
Conditions: column: Zorbax Extend-C18 2.1 x 50 mm; eluents: water / acetonitrile, 0.1% formic acid
Method in brief: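 Retention time was recorded from adduct peaks, which were picked computationally and each inspected manually. Pure standards ran in mixtures of ~100 molecules on HPLC coupled to a quadrupole time-of-flight mass spectrometer, in positive and negative ionization mode, through a Zorbax Extend-C18 column (2.1 × 50 mm, 1.8 μm) at 100 μL/min. Eluents were water and acetonitrile, each with 0.1% formic acid.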

Compound	RP-LC retention time
CC(C)n1c(CN2CCN(C)CC2)nc2cc(NC(=O)c3cccs3)ccc21	565 s
CCN1CCN(Cc2ccc(C(=O)NCc3ccc(C(F)(F)F)cc3)cc2)C(=O)C1=O	744 s
COc1ccc(-c2c(C)noc2NC(C)=O)cc1S(=O)(=O)Nc1ccc(S(N)(=O)=O)cc1	636 s
COC(=O)c1ccc(NS(=O)(=O)c2cccc(S(C)(=O)=O)c2)cc1	706 s
COC(=O)c1cc(C)nc2c1c(=O)n(Cc1c(F)cccc1Cl)c(=O)n2C	965 s
CCN(CC)c1ccc(CN(C(=O)Cc2coc3ccc(C)cc23)C2CCS(=O)(=O)C2)cc1 (stereo not given)	706 s
Cc1c(-c2noc(-c3ccc(F)c(F)c3)n2)nnn1Cc1ccccc1	1090 s
COC(=O)c1ccc2c(=O)n(-c3cc(OC)cc(OC)c3)c(N3CCOCC3)nc2c1	903 s
Cc1ccc(-c2nc3nc(C)cc(N(CCO)Cc4ccccc4)n3n2)cc1	815 s
COc1ncc(C(=O)NC(C)c2ccc(F)cc2)cn1 (stereo not given)	756 s
Cc1ccc(Nc2c(-c3cccc(Br)c3)nc3ccc(Br)cn23)cc1	1140 s
CCN1C(=O)c2cccnc2Sc2cc(CNC(=O)c3cccc4[nH]ccc34)ccc21	721 s
Cc1oc(-c2ccc(Cl)cc2)nc1Cn1nnc(C(=O)Nc2cc(F)ccc2F)c1C	1310 s
CSc1ccc(-c2nc3cc(C)ccn3c2Nc2ccc(Cl)cc2)cc1	840 s
CCc1cc(C(=O)Cc2nc3ccccc3n2C)c(O)cc1O	587 s
O=[N+]([O-])c1ccc(-c2csc(Nc3ccccc3)n2)cc1	1130 s
Cc1nc(-c2cc(S(=O)(=O)Nc3ccc(F)cc3F)c(C)s2)sc1C	1090 s
O=C(O)C1c2ccccc2CC(=O)N1Cc1ccccc1 (stereo not given)	723 s
Cc1cccc(NC(=O)c2cnc3c(c2)c(=O)n(C)c(=O)n3-c2ccccc2)c1	926 s

Compound	RP-LC retention time
Cc1cccc(CNC(=O)CCc2nc3c(C)cccc3c(=O)n2C)c1	845 s
Cc1ccc(CNS(=O)(=O)c2ccc3c(c2)C(=O)N(C)c2ncccc2O3)cc1C	986 s
COc1ccc(-c2cc3nn(CC(=O)Nc4c(C)cccc4C)c(=O)n3c(C)n2)cc1	909 s
Cc1ccc(-c2noc(-c3ccc(N4CCN(Cc5ccc6c(c5)OCO6)CC4)nc3)n2)cc1	874 s
O=C1[C@H](Cc2ccc(O)cc2)N2C(=O)CCN(C(=O)NCc3ccccc3)[C@H]2CN1Cc1cccc2ccccc12	847 s
Cc1c(-c2ccnc(N3CCN(C)CC3)n2)cnc2nc(-c3ccccc3)nn12	640 s
Cc1ccc(C(C)NC(=O)c2cn3c(n2)COCC3)c(C)c1 (stereo not given)	667 s
Cc1cc2nn(CC(=O)Nc3ccccc3F)c(=O)n2c(Nc2ccccc2)n1	985 s
CCOC(=O)c1ncn2c1[C@@H]1CCCN1C(=O)c1cc(OC)ccc1-2	758 s
CCc1ccc(CNC(=O)c2cc3n(n2)CC(C)(C(=O)NCc2ccccc2)N(C)C3=O)cc1 (stereo not given)	832 s
CSc1ccc(-c2nc3ccc(C)cn3c2Nc2ccccc2C)cc1	795 s
Cc1ccc(NC(=O)c2ccco2)c(C(=O)c2ccccc2)c1	995 s
COC(=O)C1=CN(c2ccccc2OC)c2cc(F)ccc2S1(=O)=O	860 s
COc1ccc2c(c1)C=C(C(=O)NCCc1c[nH]c3ccc(OC)cc13)CO2	800 s
COc1ccc(OCC2CN(C(=O)Cc3ccc(OC)c(OC)c3OC)CCO2)cc1 (stereo not given)	794 s
O=C(Nc1ccc2c(c1)OCCO2)c1coc2ccccc12	826 s
Cc1ccccc1NC(=O)Cn1c(=O)n(-c2ccccc2)c(=O)c2c1cc(C)n2C	806 s
CCSc1nccc2c1ccn2CC(=O)NCc1ccc(Br)cc1	681 s
Cc1cc(NC(=O)CSc2nnnn2C)sn1	596 s

Results, then the compound that gave them:

RP-LC retention time	Compound
659 s	CC(C)CCNC(=O)N1CCC(c2cc(N)on2)CC1
528 s	O=C(NC1CC1)[C@@H]1C[C@H](Oc2cccnc2)CN1C(=O)C1CC1
747 s	O=C(CN1C(=O)COc2ccc(C(=O)N3CCCC3)cc21)NCCCc1ccccc1
804 s	COC(=O)c1ncn2c1C(=O)N(Cc1ccccc1Cl)C(C)(C(=O)NC1CCCCC1)C2 (stereo not given)
708 s	Cc1ccc(CNC(=O)Cn2cnc3nc(N4CCC(C(=O)NC5CC5)CC4)sc3c2=O)cc1
630 s	O=C(Nc1ccc2c(c1)OCCO2)C1CCN(c2cc(N3CCCC3)ncn2)CC1
757 s	O=C(Nc1c(C(=O)N2CCN(c3ccccn3)CC2)oc2ccccc12)c1ccc([N+](=O)[O-])cc1
652 s	COc1ccc(C2(C(=O)N3CC[C@@H]4CN(Cc5ccccc5)[C@@H]4C3)CC2)cc1
738 s	CCC(=O)Nc1ccc2c(c1)CN(C(=O)c1ccc(C)cc1)C(C(=O)N1CCCC1)C2 (stereo not given)
636 s	COc1ccc(CC(=O)NCC(=O)Nc2nc3ccccc3[nH]2)cc1Cl
563 s	O=C(c1cnccn1)N1C[C@@H](COCC2CC2)[C@H](c2ccncc2)C1
909 s	COc1ccc(C2(CNC(=O)C(=O)Nc3ccc(N4CCCC4=O)c(C)c3)CCCC2)cc1
1090 s	O=C(c1noc2ccc(S(=O)(=O)N3CCCc4ccccc43)cc12)N1CCCCC1
634 s	CCc1ccc(-n2nnc(C(=O)N3CCC(N4CCCCC4)CC3)c2-c2ccncc2)cc1
611 s	CN1CCN(C(c2cccnc2)c2c(NC(=O)c3ccco3)sc3c2CCCC3)CC1 (stereo not given)
870 s	O=C(C1CC1)N1CCc2sc(S(=O)(=O)Nc3cccc(Cl)c3F)cc2C1
834 s	COC(=O)CNC(=O)N1c2ccccc2CC1c1nc(C(C)C)no1 (stereo not given)
653 s	Cc1ccc(Cl)cc1NC(=O)N1CCC(n2cnnc2C2CC2)C1 (stereo not given)
573 s	COC(=O)c1ccc(NC(=O)C(=O)NCC2CCN(Cc3ccco3)CC2)cc1
907 s	COc1ccc(-c2cc3n(n2)CCCN(S(=O)(=O)c2cccc4cccnc24)C3)cc1
688 s	CS(=O)(=O)N1CCC(OC2CCN(C(=O)Nc3c(F)cccc3F)CC2)CC1
569 s	CNC(=O)C1CCCN(c2nc3ncn(CC(=O)NCC4CCCO4)c(=O)c3s2)C1 (stereo not given)
1110 s	Fc1ccc(-c2nnc(-c3nc(NC4CCCCC4)c4ccccc4n3)o2)cc1
656 s	O=C(Nc1nc(C(=O)N2CCN(C(=O)c3ccco3)CC2)co1)c1ccsc1
619 s	O=C(NCCCN1CCCC1=O)c1ccc(-c2ccc(N3CCSCC3)nc2)cc1
790 s	CC(=O)Nc1ccc(C2(C(=O)NCc3ccc(C)cc3)CCC2)cc1
665 s	O=C(Nc1cccn2c(C3CCC3)nnc12)c1ccncc1
